In patent publication US6596290B2 (priority 2001, dated 2003):
“And” between values parts separate entries of the source, which are not always exact repeats. Identical values can stand only once. Like-named read-outs stand apart in the source and are kept apart here.

Tests used:
[1] = system: TSST-1; type: cell-based, Staphylococcus aureus
[2] = system: S. aureus (MN8); type: cell-based, Staphylococcus aureus

## CC(=O)/C=C/C1=C(C)CCCC1(C)C [Beta-ionone]
[1]
  Reduction of Toxin %: 100%
  ng TSST-1 per OD Unit: none
[2]
  CFU/mL: 1.8E + 08 CFU/mL
  Optical Density: 0.688

## CC(C)=CCC/C(C)=C/CO [Geraniol]
[1]
  Reduction of Toxin %: 99%
  ng TSST-1 per OD Unit: 26 ng TSST-1 per OD Unit
[2]
  CFU/mL: 3.2E + 08 CFU/mL
[2]; 0.01% test compound, Table 3
  Optical Density: 0.0569

## C=CC(C)(O)CCC=C(C)C (centres unmarked) [Linalool]
[1]
  Reduction of Toxin %: 88%
  ng TSST-1 per OD Unit: 421 ng TSST-1 per OD Unit
[2]
  CFU/mL: 2.0E + 09 CFU/mL
[2]; 0.01% test compound, Table 3
  Optical Density: 0.600

## CC1CCC(C(C)C)C(O)C1 (centres unmarked) [Menthol]
[1]; 24 h
  ng TSST-1 per OD Unit: 33 ng TSST-1 per OD Unit
[2]
  effect on the growth of S. aureus cells: minimal, if any, effect
[2]; 0.1% test compound (in methanol), S. aureus MN8, 24 h, 600 nm
  Optical Density: 0.621
[2]; 24 h
  CFU/mL: 6.3E + 08 CFU/mL

## CC1(O)CCC(C(C)(C)O)CC1 (centres unmarked) [p-menthane-1,8-diol]
[1]
  Reduction of Toxin %: 78%
  ng TSST-1 per OD Unit: 792 ng TSST-1 per OD Unit
[2]
  CFU/mL: 2.0E + 09 CFU/mL
[2]; 0.7% test compound, Table 3
  Optical Density: 0.620

## myreth-3-myristate [Cetiol]
[1]
  ng TSST-1 per CFU: 371 ng TSST-1 per CFU and 196 ng TSST-1 per CFU and 200 ng TSST-1 per CFU
  ng TSST-1 per mL: 1556 ng TSST-1 per mL and 1147 ng TSST-1 per mL and 989 ng TSST-1 per mL
[2]
  CFU/mL × 10^8: 4.2 and 5.9 and 5.0
